Measured values: patent US20240400553A1, “AMINE BASED MATRIPTASE 2 INHIBITORS AND USES THEREOF” (Disc Medicine, Inc., priority 2023, published 2024)
pKi: −log10 of the molar value.

Target: T1, Human Recombinant Matriptase 2 (Homo sapiens, UniProt Q8IU80)
T1 construct: made in house
T1 sequence (Q8IU80 1-811): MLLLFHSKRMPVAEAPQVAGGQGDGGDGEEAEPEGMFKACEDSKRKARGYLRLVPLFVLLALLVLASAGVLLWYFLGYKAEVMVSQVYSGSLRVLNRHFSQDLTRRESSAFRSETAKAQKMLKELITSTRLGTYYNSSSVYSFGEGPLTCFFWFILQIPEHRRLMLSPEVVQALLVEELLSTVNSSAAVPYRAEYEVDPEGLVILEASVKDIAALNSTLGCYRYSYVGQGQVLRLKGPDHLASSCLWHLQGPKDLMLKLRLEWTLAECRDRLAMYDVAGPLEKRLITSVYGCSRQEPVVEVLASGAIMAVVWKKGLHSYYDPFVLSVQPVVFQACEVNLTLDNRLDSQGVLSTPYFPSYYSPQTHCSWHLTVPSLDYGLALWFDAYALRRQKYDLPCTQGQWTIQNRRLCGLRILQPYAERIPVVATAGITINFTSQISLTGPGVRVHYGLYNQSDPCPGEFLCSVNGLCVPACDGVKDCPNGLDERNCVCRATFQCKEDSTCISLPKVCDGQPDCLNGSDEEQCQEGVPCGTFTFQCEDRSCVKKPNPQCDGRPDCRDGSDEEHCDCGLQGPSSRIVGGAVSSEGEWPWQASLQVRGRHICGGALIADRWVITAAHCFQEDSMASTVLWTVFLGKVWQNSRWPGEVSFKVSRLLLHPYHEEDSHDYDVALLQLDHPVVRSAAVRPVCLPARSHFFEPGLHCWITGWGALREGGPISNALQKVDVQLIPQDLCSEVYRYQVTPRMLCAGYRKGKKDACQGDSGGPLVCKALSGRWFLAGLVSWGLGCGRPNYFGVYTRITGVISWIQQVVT
Test: Matriptase 2 inhibition, fluorescence based assay (Method I)
Assay type: biochemical
Settings: Table A; Ki of Matriptase-2; read-out: Mat-2 Ki
Summary of the method: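 Fluorogenic readout (Ex 360/Em 480 nm) taken 60 min after adding 62 μM Boc-Gln-Ala-Arg-AMC, following 30-min enzyme–compound preincubation at 25 °C. Conditions: 3.5 nM in-house enzyme, pH 7.5 Tris/NaCl/gelatin buffer, 1% DMSO; percent inhibition versus concentration fitted by variable-slope sigmoidal regression.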

SMILES | pKi
CN1CCC(COC(=O)c2cc3ccc(CN)nc3n2Cc2cc(NS(=O)(=O)Cc3ccc(F)s3)cc3ccccc23)CC1 [Compound 149, (1-methylpiperidin-4-yl)methyl 6-(amino-methyl)-1-({3-[(5-fluoro-thiophen-2-yl)methane-sulfonamido]naphthalen-1-yl}methyl)-1H-pyr-rolo[2,3-b]pyridine-2-carboxylate] | ≥ 7.00
CN1CCC(CCOC(=O)c2cc3ccc(CN)nc3n2Cc2cc(NS(=O)(=O)Cc3cccs3)cc3ccccc23)CC1 [Compound 150, 2-(1-methylpiperidin-4-yl)ethyl 6-(aminometh-yl)-1-({3-[(thiophen-2-yl)methanesulfonamido]-naphthalen-1-yl}methyl)-1H-pyrrolo[2,3-b]pyr-idine-2-carboxylate] | ≥ 7.00
NCc1ccc2cc(C(=O)OCCN3CCOCC3)n(Cc3cc(NS(=O)(=O)Cc4cccs4)cc4ccccc34)c2n1 [Compound 151, 2-(morpholin-4-yl)ethyl 6-(aminomethyl)-1-({3-[(thiophen-2-yl)methane-sulfonamido]naphthalen-1-yl}methyl)-1H-pyr-rolo[2,3-b]pyridine-2-carboxylate] | ≥ 7.00
CNCCOC(=O)c1cc2ccc(CN)nc2n1Cc1cc(NS(=O)(=O)Cc2cccs2)cc2ccccc12 [Compound 152, 2-(methylamino)ethyl 6-(aminomethyl)-1-({3-[(thiophen-2-yl)methane-sulfonamido]naphthalen-1-yl}methyl)-1H-pyr-rolo[2,3-b]pyridine-2-carboxylate] | ≥ 7.00
NCc1ccc2cc(C(=O)O)n(Cc3cc(NS(=O)(=O)Cc4cccs4)cc4ccccc34)c2n1 [Compound 153, 6-(aminomethyl)-1-({3-[(thiophen-2-yl)methane-sulfonamido]naphthalen-1-yl}methyl)-1H-pyr-rolo[2,3-b]pyridine-2-carboxylic acid] | ≥ 7.00
CCOC(=O)c1cc2ccc(CN)nc2n1Cc1cc(NS(=O)(=O)Cc2cccs2)cc2ccccc12 [Compound 154, ethyl 6-(aminomethyl)-1-({3-[(thiophen-2-yl)-methanesulfonamido]-naphthalen-1-yl}methyl)-1H-pyrrolo[2,3-b]pyr-idine-2-carboxylate] | 6.30 to 7.00
Cn1cncc1COC(=O)c1cc2ccc(CN)nc2n1Cc1cc(NS(=O)(=O)Cc2ccsc2)cc2ccccc12 [Compound 155, (1-methyl-1H-imidazol-5-yl)methyl 6-(amino-methyl)-1-({3-[(thiophen-3-yl)methanesulfon-amido]naphthalen-1-yl}-methyl)-1H-pyrrolo[2,3-b]pyridine-2-carboxylate] | ≥ 7.00
Cn1ccnc1COC(=O)c1cc2ccc(CN)nc2n1Cc1cc(NS(=O)(=O)Cc2ccsc2)cc2ccccc12 [Compound 157, (1-methyl-1H-imidazol-2-yl)methyl 6-amino-methyl)-1-({3-[(thio-phen-3-yl)methanesul-fonamido]naphthalen-1-yl}methyl)-1H-pyrrolo-[2,3-b]pyridine-2-car-boxylate] | ≥ 7.00
NCc1ccc2cc(C(=O)OC[C@H]3COCCN3)n(Cc3cc(NS(=O)(=O)Cc4ccsc4)cc4ccccc34)c2n1 [Compound 158, [(3R)-morpholin-3-yl]-methyl 6-(aminometh-yl)-1-({3-[(thiophen-3-yl)methanesulfonamido]-naphthalen-1-yl}meth-yl)-1H-pyrrolo[2,3-b]-pyridine-2-carboxylate] | ≥ 7.00
CC(C)(C)n1cncc1COC(=O)c1cc2ccc(CN)nc2n1Cc1cc(NS(=O)(=O)Cc2ccsc2)cc2ccccc12 [Compound 159, (1-tert-butyl-1H-imid-azol-5-yl)methyl 6-(aminomethyl)-1-({3-[(thiophen-3-yl)methane-sulfonamido]naphthalen-1-yl}methyl)-1H-pyr-rolo[2,3-b]pyridine-2-carboxylate] | ≥ 7.00
Cc1cscc1CS(=O)(=O)Nc1cc(Cn2c(C(=O)OCC3CCN(C)CC3)cc3ccc(CN)nc32)c2ccccc2c1 [Compound 163, (1-methylpiperidin-4-yl)-methyl 6-(aminomethyl)-1-({3-[(4-methylthio-phen-3-yl)methanesul-fonamido]naphthalen-1-yl}methyl)-1H-pyrrolo-[2,3-b]pyridine-2-car-boxylate] | ≥ 7.00
Cn1ccnc1CNC(=O)c1cc2ccc(CN)nc2n1Cc1cc(NS(=O)(=O)Cc2ccsc2)cc2ccccc12 [Compound 165] | ≥ 7.00
CN(C)CCOC(=O)c1cc2ccc(CN)nc2n1Cc1cc(NS(=O)(=O)Cc2ccsc2)cc2ccccc12 [Compound 169, 2-(dimethylamino)ethyl 6-(aminomethyl)-1-({3-[(thiophen-3-yl)methane-sulfonamido]naphthalen-1-yl}methyl)-1H-pyr-rolo[2,3-b]pyridine-2-carboxylate] | ≥ 7.00
NCc1ccc2cc(C(=O)OC[C@H]3CNCCO3)n(Cc3cc(NS(=O)(=O)Cc4ccsc4)cc4ccccc34)c2n1 [Compound 170, [(2R)-morpholin-2-yl]-methyl 6-(aminomethyl)-1-({3-[(thiophen-3-yl)-methanesulfonamido]-naphthalen-1-yl}meth-yl)-1H-pyrrolo[2,3-b]-pyridine-2-carboxylate] | ≥ 7.00
CC(=O)N(C)CCOC(=O)c1cc2ccc(CN)nc2n1Cc1cc(NS(=O)(=O)Cc2ccsc2)cc2ccccc12 [Compound 171, 2-(N-methylacetamido)-ethyl 6-(aminomethyl)-1-({3-[(thiophen-3-yl)-methanesulfonamido]-naphthalen-1-yl}meth-yl)-1H-pyrrolo[2,3-b]-pyridine-2-carboxylate] | ≥ 7.00
NCc1ccc2cc(C(=O)NCCN3CCOCC3)n(Cc3cc(NS(=O)(=O)Cc4ccsc4)cc4ccccc34)c2n1 [Compound 173, 6-(aminomethyl)-N-[2-(morpholin-4-yl)ethyl]-1-({3-[(thiophen-3-yl)-methanesulfonamido]-naphthalen-1-yl}meth-yl)-1H-pyrrolo[2,3-b]-pyridine-2-carboxamide] | ≥ 7.00

Next, values leading:

pKi | SMILES
≥ 7.00 | NCc1ccc2cc(C(=O)OCCN3CCNCC3)n(Cc3cc(NS(=O)(=O)Cc4ccsc4)cc4ccccc34)c2n1 [Compound 156, 2-(piperazin-1-yl)ethyl 6-(aminomethyl)-1-({3-[(thiophen-3-yl)methane-sulfonamidoJnaphthalen-1-yl}methyl)-1H-pyr-rolo[2,3-b]pyridine-2-carboxylate]
≥ 7.00 | NCc1ccc2cc(C(=O)OCCCN3CCOCC3)n(Cc3cc(NS(=O)(=O)Cc4ccsc4)cc4ccccc34)c2n1 [Compound 160, 3-(morpholin-4-yl)prop-yl 6-(aminomethyl)-1-({3-[(thiophen-3-yl)meth-anesulfonamido]naph-thalen-1-yl}methyl)-1H-pyrrolo[2,3-b]pyridine-2-carboxylate]
≥ 7.00 | CN1CCN(CCOC(=O)c2cc3ccc(CN)nc3n2Cc2cc(NS(=O)(=O)Cc3ccsc3)cc3ccccc23)CC1 [Compound 161, 2-(4-methylpiperazin-1-yl)ethyl 6-(aminometh-yl)-1-({3-[(thiophen-3-yl)methanesulfonamido]-naphthalen-1-yl}meth-yl)-1H-pyrrolo[2,3-b]-pyridine-2-carboxylate]
≥ 7.00 | CN1CCC(CCNC(=O)c2cc3ccc(CN)nc3n2Cc2cc(NS(=O)(=O)Cc3ccsc3)cc3ccccc23)CC1 [Compound 162, 6-(aminomethyl)-N-[2-(1-methylpiperidin-4-yl)-ethyl]-1-({3-[(thiophen-3-yl)methanesulfon-amido]naphthalen-1-yl}-methyl)-1H-pyrrolo[2,3-b]pyridine-2-carboxamide]
≥ 7.00 | NCc1ccc2cc(C(=O)OCC3CCN(C=O)CC3)n(Cc3cc(NS(=O)(=O)Cc4ccsc4)cc4ccccc34)c2n1 [Compound 164, (1-formylpiperidin-4-yl)methyl 6-(aminometh-yl)-1-({3-[(thiophen-3-yl)methanesulfonamido]-naphthalen-1-yl}methyl)-1H-pyrrolo[2,3-b]pyr-idine-2-carboxylate]
≥ 7.00 | COCCN1CCC(COC(=O)c2cc3ccc(CN)nc3n2Cc2cc(NS(=O)(=O)Cc3ccsc3)cc3ccccc23)CC1 [Compound 167, [1-(2-methoxyethyl)-piperidin-4-yl]methyl 6-(aminomethyl)-1-({3-[(thiophen-3-yl)meth-anesulfonamido]naph-thalen-1-yl}methyl)-1H-pyrrolo[2,3-b]pyridine-2-carboxylate]
≥ 7.00 | NCc1ccc2cc(C(=O)OCCN3CCOCC3)n(Cc3cc(NS(=O)(=O)Cc4ccsc4)cc4ccccc34)c2n1 [Compound 168, 2-(morpholin-4-yl)ethyl 6-(aminomethyl)-1-({3-[(thiophen-3-yl)methane-sulfonamido]naphthalen-1-yl}methyl)-1H-pyr-rolo[2,3-b]pyridine-2-carboxylate]
≥ 7.00 | CN1CCC(CCOC(=O)c2cc3ccc(CN)nc3n2Cc2cc(NS(=O)(=O)Cc3ccsc3)cc3ccccc23)CC1 [Compound 174]
